{"source": "ChEMBL document CHEMBL4219030", "about": "“Progress in the discovery of small molecule modulators of the Cys-loop superfamily receptors” (Bioorg Med Chem Lett, 2017)", "key": {"[1]": {"molecular_target": "T1, Glycine receptor subunit alpha-1 (Homo sapiens, UniProt P23415)", "T1 sequence (P23415 whole entry)": "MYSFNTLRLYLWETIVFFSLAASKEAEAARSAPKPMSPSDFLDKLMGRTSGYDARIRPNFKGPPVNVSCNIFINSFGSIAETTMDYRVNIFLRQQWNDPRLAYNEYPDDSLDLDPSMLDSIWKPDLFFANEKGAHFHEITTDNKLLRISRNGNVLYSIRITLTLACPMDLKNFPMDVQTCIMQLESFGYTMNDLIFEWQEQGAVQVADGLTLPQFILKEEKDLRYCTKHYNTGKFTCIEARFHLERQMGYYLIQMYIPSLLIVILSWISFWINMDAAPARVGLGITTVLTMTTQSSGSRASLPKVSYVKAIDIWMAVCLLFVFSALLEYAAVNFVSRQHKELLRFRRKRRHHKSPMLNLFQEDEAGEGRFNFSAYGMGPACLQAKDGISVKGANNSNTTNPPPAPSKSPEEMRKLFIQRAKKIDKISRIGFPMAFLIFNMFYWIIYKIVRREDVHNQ", "assay": "Positive allosteric modulation of human glycine alpha1 receptor expressed in HEK293T cells assessed as glycine-induced increase incurrent response after 18 to 24 hrs by membrane potential blue dye based FLIPR assay", "type": "cell-based"}, "[2]": {"molecular_target": "T2, Glycine receptor alpha-3/beta (Homo sapiens, UniProt O75311+P48167)", "T2 sequence (O75311 whole entry)": "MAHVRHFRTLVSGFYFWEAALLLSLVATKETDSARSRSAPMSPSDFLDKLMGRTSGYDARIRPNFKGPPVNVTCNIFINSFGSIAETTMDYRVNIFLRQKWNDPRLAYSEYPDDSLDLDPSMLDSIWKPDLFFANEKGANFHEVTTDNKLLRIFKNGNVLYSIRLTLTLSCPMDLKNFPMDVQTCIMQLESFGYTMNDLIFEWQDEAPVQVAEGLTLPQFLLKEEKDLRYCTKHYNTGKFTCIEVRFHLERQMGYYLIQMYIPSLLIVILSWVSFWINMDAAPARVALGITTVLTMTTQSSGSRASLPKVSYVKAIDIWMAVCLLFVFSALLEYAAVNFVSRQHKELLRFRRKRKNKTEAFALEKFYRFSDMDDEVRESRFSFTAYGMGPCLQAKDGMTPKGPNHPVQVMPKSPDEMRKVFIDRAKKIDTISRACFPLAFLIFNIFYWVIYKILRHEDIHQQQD", "T2 sequence (P48167 whole entry)": "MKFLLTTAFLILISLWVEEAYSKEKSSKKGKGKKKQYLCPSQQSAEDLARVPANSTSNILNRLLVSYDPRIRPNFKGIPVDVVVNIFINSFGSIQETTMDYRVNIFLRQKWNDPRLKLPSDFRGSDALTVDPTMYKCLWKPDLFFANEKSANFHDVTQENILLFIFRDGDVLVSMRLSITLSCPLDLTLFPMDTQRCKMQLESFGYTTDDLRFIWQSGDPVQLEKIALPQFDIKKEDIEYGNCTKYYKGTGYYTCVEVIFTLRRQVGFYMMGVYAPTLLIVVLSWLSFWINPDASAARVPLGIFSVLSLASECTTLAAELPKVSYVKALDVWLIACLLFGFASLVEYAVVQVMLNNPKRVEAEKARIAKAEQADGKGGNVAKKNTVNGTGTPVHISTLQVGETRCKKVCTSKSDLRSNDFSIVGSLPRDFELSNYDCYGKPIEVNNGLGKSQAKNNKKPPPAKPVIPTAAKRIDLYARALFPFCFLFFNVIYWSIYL", "assay": "Positive allosteric modulation of human glycine alpha3beta receptor expressed in HEK293T cells assessed as glycine-induced increase in current response after 18 to 24 hrs by membrane potential blue dye based FLIPR assay", "type": "cell-based"}, "[3]": {"molecular_target": "Glycine receptor (alpha-1/beta) (Homo sapiens, UniProt P23415+P48167)", "sequence (P48167 whole entry, one chain of several)": "as the sequence (P48167 whole entry) above", "assay": "Positive allosteric modulation of human glycine alpha1beta receptor expressed in HEK293T cells assessed as glycine-induced increase in current response after 18 to 24 hrs by membrane potential blue dye based FLIPR assay", "type": "cell-based"}, "[4]": {"molecular_target": "T2, Glycine receptor alpha-3/beta", "assay": "Positive allosteric modulation of human glycine alpha3beta receptor expressed in HEK293T cells assessed as potentiation of glycine-induced increase in current response after 18 to 24 hrs by membrane potential blue dye based FLIPR assay relative to glycine", "type": "cell-based"}, "[5]": {"molecular_target": "T3, 5-hydroxytryptamine receptor 3A (Cavia porcellus, UniProt O70212)", "T3 sequence (O70212 whole entry)": "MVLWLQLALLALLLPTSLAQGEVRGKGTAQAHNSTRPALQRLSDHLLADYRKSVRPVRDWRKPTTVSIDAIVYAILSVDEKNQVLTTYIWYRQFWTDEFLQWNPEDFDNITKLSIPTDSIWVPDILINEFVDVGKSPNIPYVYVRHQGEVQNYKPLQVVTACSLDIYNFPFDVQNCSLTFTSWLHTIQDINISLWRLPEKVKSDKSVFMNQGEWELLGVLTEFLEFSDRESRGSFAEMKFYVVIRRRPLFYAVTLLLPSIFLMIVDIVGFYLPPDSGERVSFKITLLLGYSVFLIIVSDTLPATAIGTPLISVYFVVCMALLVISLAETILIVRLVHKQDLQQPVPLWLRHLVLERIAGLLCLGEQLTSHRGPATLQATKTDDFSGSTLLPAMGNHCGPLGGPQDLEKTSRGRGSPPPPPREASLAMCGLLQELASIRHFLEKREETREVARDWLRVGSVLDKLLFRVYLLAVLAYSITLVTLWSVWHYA", "assay": "Antagonist activity 5-HT3A receptor in guinea pig ileum assessed as inhibition of 2-methyl-5-HT induced response preincubated for 10 mins followed by agonist addition", "conditions": "read-out: pA2 (converted)"}, "[6]": {"assay": "Positive allosteric modulation of human (alpha4beta2)2alpha4 nAChR expressed in HEK cells preincubated for 15 mins followed by dihydro-beta-erythroidine hydrobromide addition by fluorometric analysis", "type": "cell-based", "conditions": "HEK293"}, "[7]": {"molecular_target": "Neuronal acetylcholine receptor; alpha4/beta4 (Homo sapiens, UniProt P30926+P43681)", "sequence (P30926 whole entry)": "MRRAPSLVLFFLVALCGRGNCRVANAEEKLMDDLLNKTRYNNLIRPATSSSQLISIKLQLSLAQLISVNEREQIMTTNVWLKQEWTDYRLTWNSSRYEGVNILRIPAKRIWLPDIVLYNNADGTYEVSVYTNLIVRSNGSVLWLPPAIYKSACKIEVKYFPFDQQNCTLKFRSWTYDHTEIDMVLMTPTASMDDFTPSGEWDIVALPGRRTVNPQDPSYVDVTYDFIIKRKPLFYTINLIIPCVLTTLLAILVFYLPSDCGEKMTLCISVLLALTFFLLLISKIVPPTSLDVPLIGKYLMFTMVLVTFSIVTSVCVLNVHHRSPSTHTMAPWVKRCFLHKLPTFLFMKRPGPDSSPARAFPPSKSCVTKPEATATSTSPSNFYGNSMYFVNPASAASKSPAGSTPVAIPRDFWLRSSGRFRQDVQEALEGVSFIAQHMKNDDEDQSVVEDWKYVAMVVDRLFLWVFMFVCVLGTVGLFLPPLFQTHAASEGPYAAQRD", "sequence (P43681 whole entry)": "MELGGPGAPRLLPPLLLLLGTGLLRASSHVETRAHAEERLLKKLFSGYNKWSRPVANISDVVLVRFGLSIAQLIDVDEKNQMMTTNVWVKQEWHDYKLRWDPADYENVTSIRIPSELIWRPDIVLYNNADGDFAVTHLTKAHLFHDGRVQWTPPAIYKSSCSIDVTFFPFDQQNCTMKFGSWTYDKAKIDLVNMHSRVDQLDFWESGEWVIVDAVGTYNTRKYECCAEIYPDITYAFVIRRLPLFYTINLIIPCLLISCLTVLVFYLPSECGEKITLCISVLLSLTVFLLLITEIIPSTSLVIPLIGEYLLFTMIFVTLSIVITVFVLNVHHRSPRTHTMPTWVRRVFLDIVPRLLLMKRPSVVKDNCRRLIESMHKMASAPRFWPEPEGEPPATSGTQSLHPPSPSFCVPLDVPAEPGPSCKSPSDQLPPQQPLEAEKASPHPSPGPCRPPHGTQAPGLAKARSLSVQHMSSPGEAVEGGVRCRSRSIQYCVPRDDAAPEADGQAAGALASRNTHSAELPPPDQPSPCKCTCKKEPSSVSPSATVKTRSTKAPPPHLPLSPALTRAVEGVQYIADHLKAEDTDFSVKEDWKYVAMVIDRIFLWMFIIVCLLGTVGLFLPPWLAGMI", "assay": "Positive allosteric modulation of human alpha4beta4 nAChR expressed in HEK cells preincubated for 15 mins followed by dihydro-beta-erythroidine hydrobromide addition by fluorometric analysis", "type": "cell-based"}, "[8]": {"molecular_target": "Nicotinic acetylcholine receptor alpha2/beta2 (Homo sapiens, UniProt P02708+P17787)", "assay": "Positive allosteric modulation of human alpha2beta2 nAChR expressed in HEK cells preincubated for 15 mins followed by dihydro-beta-erythroidine hydrobromide addition by fluorometric analysis", "type": "cell-based"}, "[9]": {"molecular_target": "T4, Neuronal acetylcholine receptor; alpha4/beta2 (Homo sapiens, UniProt P17787+P43681)", "T4 sequence (P17787 whole entry)": "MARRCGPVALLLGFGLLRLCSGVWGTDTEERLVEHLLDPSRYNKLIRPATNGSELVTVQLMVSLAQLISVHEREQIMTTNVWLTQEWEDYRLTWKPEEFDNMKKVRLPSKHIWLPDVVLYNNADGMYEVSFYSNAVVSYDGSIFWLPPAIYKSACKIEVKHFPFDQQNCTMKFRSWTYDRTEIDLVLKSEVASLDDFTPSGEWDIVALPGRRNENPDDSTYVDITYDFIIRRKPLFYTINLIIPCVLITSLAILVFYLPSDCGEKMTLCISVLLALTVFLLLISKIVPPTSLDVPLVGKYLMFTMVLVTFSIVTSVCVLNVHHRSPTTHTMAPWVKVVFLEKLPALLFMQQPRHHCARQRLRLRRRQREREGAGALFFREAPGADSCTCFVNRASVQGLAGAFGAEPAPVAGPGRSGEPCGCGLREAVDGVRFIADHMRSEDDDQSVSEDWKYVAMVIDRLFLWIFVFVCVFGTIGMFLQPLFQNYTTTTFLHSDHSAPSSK", "T4 sequence (P43681 whole entry)": "as the sequence (P43681 whole entry) above", "assay": "Positive allosteric modulation of human (alpha4beta2)2beta2 nAChR expressed in HEK cells preincubated for 15 mins followed by dihydro-beta-erythroidine hydrobromide addition by fluorometric analysis", "type": "cell-based"}, "[10]": {"molecular_target": "T4, Neuronal acetylcholine receptor; alpha4/beta2", "assay": "Positive allosteric modulation of human alpha4beta2 nAChR expressed in HEK cells preincubated for 15 mins followed by dihydro-beta-erythroidine hydrobromide addition by fluorometric analysis", "type": "cell-based"}, "[11]": {"molecular_target": "Nicotinic acetylcholine receptor alpha2/beta4 (Homo sapiens, UniProt P02708+P30926)", "assay": "Positive allosteric modulation of human alpha2beta4 nAChR expressed in HEK cells preincubated for 15 mins followed by dihydro-beta-erythroidine hydrobromide addition by fluorometric analysis", "type": "cell-based"}, "[12]": {"molecular_target": "T5, 5-hydroxytryptamine receptor 3A (Homo sapiens, UniProt P46098)", "T5 sequence (P46098 whole entry)": "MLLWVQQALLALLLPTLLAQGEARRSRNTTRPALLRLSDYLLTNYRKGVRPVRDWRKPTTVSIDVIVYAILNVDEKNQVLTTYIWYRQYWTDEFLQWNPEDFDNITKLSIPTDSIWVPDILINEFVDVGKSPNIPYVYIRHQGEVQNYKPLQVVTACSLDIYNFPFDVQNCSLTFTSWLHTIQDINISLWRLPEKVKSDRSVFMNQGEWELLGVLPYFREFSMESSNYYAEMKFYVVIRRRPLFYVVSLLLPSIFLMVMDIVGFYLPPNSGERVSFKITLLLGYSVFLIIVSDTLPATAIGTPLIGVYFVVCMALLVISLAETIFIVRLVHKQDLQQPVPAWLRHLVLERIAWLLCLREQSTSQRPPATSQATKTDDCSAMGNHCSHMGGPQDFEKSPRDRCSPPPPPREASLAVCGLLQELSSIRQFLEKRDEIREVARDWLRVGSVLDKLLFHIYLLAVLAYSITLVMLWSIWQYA", "assay": "Antagonist activity at 5-HT3A receptor (unknown origin) assessed as inhibition of serotonin-induced peak currents"}, "[13]": {"molecular_target": "Neuronal acetylcholine receptor subunit alpha-7 (Homo sapiens, UniProt P36544)", "sequence (P36544 whole entry)": "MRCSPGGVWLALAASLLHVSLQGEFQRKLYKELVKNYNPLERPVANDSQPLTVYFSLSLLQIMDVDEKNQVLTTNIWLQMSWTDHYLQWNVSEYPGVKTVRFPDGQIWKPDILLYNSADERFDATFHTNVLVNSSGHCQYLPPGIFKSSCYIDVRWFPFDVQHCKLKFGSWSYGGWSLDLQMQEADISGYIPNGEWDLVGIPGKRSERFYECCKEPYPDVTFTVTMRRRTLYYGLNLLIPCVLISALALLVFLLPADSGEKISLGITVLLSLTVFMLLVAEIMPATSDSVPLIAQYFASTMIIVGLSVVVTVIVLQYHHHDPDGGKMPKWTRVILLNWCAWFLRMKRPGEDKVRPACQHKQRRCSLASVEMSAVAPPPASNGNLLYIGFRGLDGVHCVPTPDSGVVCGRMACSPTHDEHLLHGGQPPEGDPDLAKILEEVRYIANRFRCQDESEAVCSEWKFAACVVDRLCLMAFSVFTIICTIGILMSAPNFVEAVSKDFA", "assay": "Inhibition of human alpha7 nAChR expressed in Xenopus oocytes at -80 mV holding potential by electro-physiological analysis", "type": "cell-based"}, "[14]": {"molecular_target": "Glycine receptor (Rattus norvegicus) (UniProt P22771+P24524+P07727+P20781)", "sequence (P07727 whole entry, looked up)": "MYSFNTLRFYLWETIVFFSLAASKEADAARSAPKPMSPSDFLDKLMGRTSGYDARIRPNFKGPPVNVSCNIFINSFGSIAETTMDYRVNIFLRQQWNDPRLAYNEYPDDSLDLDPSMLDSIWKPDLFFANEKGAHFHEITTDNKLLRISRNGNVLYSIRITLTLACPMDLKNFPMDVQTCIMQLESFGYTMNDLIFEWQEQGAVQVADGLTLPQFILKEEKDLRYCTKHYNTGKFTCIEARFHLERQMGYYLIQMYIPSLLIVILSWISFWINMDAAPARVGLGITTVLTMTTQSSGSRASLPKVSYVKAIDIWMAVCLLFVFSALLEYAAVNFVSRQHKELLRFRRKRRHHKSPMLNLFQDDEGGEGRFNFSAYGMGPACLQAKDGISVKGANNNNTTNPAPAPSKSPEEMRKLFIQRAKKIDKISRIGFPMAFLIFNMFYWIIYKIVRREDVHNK", "sequence (P20781 whole entry, looked up)": "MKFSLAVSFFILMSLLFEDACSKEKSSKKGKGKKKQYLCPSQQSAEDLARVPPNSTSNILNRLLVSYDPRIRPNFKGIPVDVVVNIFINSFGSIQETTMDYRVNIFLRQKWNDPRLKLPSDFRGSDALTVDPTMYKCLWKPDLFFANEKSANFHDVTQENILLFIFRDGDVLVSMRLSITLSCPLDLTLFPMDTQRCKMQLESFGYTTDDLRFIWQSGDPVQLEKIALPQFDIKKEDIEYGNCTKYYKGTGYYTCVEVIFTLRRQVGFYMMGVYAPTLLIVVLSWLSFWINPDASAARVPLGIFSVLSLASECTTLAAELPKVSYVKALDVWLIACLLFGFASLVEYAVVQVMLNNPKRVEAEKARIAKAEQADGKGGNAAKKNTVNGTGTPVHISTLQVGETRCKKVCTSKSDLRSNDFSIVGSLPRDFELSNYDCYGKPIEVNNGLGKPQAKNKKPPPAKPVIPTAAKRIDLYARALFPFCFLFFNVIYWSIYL", "sequence (P22771 whole entry, looked up)": "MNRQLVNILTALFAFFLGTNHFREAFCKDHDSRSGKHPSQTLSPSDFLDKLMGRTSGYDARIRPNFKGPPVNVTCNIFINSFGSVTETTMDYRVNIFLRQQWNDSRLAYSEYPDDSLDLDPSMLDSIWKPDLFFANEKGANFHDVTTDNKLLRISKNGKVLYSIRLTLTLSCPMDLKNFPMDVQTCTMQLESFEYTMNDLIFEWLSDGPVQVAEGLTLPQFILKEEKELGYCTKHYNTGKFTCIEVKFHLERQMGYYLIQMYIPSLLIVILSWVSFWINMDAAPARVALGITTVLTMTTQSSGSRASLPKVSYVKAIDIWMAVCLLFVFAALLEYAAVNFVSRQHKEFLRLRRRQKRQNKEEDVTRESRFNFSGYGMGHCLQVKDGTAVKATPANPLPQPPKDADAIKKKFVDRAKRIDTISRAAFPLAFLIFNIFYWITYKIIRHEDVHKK", "sequence (P24524 whole entry, looked up)": "as the sequence (O75311 whole entry) above, with V11L, D32N, M372T, F381L, M398V, T399V, P406A, P414A, Q461H counted along it", "assay": "Positive allosteric modulation of OFA rat embryonic ventral spinal cord neuron glycine receptor assessed as potentiation of glycine-induced chloride current at 1 to 10 uM by whole cell patch-clamp method relative to 10 uM glycine", "type": "protein-complex assay"}, "[15]": {"molecular_target": "Neuronal acetylcholine receptor; alpha3/beta2 (Homo sapiens) (UniProt P17787+P32297)", "assay": "Positive allosteric modulation of human alpha3beta2 nAChR expressed Xenopus oocytes at 3 uM relative to acetylcholine", "type": "protein-complex assay"}}}
{"compound": "CN1C(=O)[C@@H]2CN(S(=O)(=O)c3ccc4occc4c3)C[C@@H]2c2cnccc21", "values": [{"measurement": "EC50", "setting": "[1]", "result": 327, "unit": "nM"}, {"measurement": "EC50", "setting": "[2]", "result": 330, "unit": "nM"}, {"measurement": "EC50", "setting": "[3]", "result": 171, "unit": "nM"}, {"measurement": "fold change (FC)", "setting": "[4]", "result": 16}]}
{"compound": "CCCCNC(=O)c1nc2ccccc2nc1OC", "values": [{"measurement": "Kb", "setting": "[5]", "result": 20, "unit": "nM"}]}
{"compound": "O=C(N[C@@H]1CCCNC1)c1cc2cccc(Br)c2s1", "values": [{"measurement": "EC50", "setting": "[6]", "result": 165, "unit": "nM"}, {"measurement": "EC50", "setting": "[7]", "result": 237, "unit": "nM"}, {"measurement": "EC50", "setting": "[8]", "result": 660, "unit": "nM"}, {"measurement": "EC50", "setting": "[9]", "result": 275, "unit": "nM"}, {"measurement": "EC50", "setting": "[10]", "result": 446, "unit": "nM"}, {"measurement": "EC50", "setting": "[11]", "result": 286, "unit": "nM"}]}
{"compound": "C#CCNc1nc(NCCCCC2CCN(Cc3ccccc3)CC2)c(C#N)cc1C#N", "values": [{"measurement": "IC50", "setting": "[12]", "result": 1400, "unit": "nM"}, {"measurement": "IC50", "setting": "[13]", "result": 320, "unit": "nM"}]}
{"compound": "O=C(c1cnc2ccccc2n1)N1CCN(Cc2ccccc2)CC1", "values": [{"measurement": "Kb", "setting": "[5]", "result": 15.8, "unit": "nM"}]}
{"compound": "COc1nc2ccccc2nc1C(=O)Nc1nc2ccccc2s1", "values": [{"measurement": "Kb", "setting": "[5]", "result": 39.8, "unit": "nM"}]}
{"compound": "CN1[C@@H]2CC[C@H]1C[C@@H](NC(=O)c1nn(C)c3ccccc13)C2", "values": [{"measurement": "fold change (FC)", "setting": "[14]", "result": 1.73}]}
{"compound": "Clc1ccccc1CN[C@@H]1CN2CCC1CC2", "values": [{"measurement": "fold change (FC)", "setting": "[15]", "result": 3}]}
